# Target: PI3Kα (Homo sapiens (Human), UniProt P42336)
# Test: Inhibition of PI3Kα (ADP-Glo kinase activity assay, ATP to ADP conversion)
# Type: biochemical
# Conditions: 25 μM PIP2:PS, 60 μM ATP, 30 min reaction, luminescence
# Protocol: Quantification of ATP to ADP conversion as a measure of PI3Kα activity. Active PI3Kα (Life Technologies), in the presence or absence of PI3Kα inhibitor, was reacted with PIP2:PS (Life Technologies), a substrate specifically optimized for use with Class I PI3 kinases, and ultrapure ATP (Promega). The conversion of ATP to ADP by PI3Kα was measured as luminescence signal via Promega ADP-Glo kinase activity assay. Assay was validated using published PI3Kα inhibitors LY294002, PI-103, BYL719, GDC0198 and also DMSO vehicle control.
# Compounds were prepared at 100× final concentration as a 12-point, 1:3 serial-dilution in DMSO series, with DMSO control as 12th point. Compound was then diluted in (25 mM HEPES pH 7.5, 1 mM EGTA, 0.3% CHAPS) prior to addition to PI3Kα. Active PI3Kα diluted to 0.24 ng/μL (1.1 nM) in (50 mM HEPES pH 7.5, 6 mM MgCl2, 1 mM EGTA, 200 mM NaCl, 0.03% CHAPS, 8 mM DTT) was incubated with compound for 0 hr and 3 hr prior to the start of the reaction. 25 μM PIP2:PS and 60 μM ATP were diluted from stock in (25 mM HEPES pH 7.5, 1 mM EGTA, 0.3% CHAPS) and added to initiate the PI3Kα reaction. Reaction time was 30 minutes. ATP to ADP conversion was measured in Luminescence Counts on DTX880 Plate Reader (Beckman Coulter). Compound IC50s were reported using GraphPad Prism software. Analytical method was non-linear regression, 4-parameter curve fit with bottom fit to validated PI3Kα inhibitor reference controls and no top fit (floating top).
# PI3Kα, sequence (P42336 whole entry): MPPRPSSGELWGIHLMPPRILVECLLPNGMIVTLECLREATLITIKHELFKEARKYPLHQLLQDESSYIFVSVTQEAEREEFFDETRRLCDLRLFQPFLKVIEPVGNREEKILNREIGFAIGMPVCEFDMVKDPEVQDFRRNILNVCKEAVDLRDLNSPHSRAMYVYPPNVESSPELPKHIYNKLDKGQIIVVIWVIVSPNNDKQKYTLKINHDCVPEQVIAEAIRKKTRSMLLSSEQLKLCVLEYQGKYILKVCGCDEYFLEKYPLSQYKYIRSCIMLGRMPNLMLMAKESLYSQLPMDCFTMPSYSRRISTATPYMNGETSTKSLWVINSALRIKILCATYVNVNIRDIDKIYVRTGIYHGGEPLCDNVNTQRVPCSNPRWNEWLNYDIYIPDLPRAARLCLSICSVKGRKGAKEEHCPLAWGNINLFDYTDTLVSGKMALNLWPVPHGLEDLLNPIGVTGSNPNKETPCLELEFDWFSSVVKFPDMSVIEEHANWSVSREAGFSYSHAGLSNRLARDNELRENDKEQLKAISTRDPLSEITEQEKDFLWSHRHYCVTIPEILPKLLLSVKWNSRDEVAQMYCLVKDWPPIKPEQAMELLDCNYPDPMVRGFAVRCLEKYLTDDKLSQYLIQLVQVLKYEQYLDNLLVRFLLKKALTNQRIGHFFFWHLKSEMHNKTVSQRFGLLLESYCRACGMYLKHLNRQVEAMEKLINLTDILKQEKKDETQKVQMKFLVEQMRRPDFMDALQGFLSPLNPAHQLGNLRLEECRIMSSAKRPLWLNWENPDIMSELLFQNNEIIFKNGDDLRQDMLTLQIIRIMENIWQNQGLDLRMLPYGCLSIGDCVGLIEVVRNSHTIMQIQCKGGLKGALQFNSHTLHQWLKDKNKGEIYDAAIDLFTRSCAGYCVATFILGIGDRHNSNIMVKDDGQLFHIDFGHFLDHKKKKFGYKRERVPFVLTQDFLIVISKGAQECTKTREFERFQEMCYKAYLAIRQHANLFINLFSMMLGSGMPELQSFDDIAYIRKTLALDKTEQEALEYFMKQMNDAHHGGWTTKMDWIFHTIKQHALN
# PI3Kα, sequence (P27986 whole entry partner): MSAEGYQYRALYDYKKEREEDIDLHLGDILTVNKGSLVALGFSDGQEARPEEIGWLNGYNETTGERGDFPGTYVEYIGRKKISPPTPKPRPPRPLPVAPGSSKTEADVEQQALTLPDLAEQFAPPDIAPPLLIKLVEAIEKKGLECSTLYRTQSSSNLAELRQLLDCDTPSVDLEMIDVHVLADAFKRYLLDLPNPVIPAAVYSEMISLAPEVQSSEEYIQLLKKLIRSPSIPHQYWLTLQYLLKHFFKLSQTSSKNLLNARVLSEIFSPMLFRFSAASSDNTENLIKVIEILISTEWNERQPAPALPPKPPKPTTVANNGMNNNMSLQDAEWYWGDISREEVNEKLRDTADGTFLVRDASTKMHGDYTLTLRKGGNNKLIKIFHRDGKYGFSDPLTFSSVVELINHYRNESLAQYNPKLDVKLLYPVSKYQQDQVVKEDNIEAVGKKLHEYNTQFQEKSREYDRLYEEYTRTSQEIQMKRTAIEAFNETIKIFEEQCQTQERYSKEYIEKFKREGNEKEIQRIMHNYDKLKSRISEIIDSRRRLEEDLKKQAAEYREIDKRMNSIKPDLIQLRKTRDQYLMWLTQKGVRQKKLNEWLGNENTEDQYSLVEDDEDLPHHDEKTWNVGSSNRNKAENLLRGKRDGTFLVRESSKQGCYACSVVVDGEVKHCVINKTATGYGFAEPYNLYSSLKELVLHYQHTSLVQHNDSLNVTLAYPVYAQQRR
PI3Ka IC50 [nM],IC50 (read-out: PI3Ka IC50) [nM],SMILES
4300,–,"Cc1cc(N)nnc1-c1cc(N2CCOCC2)cc(S(=O)(=O)Cc2ccc(F)cc2F)c1 [Compound 99, 6-(3-((2,4-difluorobenzyl)sulfonyl)-5-morpholinophenyl)-5-methylpyridazin-3-amine]"
840,–,"Cc1nc(N)ncc1-c1cc(N2CCOCC2)cc(S(=O)(=O)[C@@H]2CCOC2)c1 [Compound 121, (R)-4-methyl-5-(3-morpholino-5-((tetrahydrofuran-3-yl)sulfonyl)phenyl)pyrimidin-2-amine]"
62,–,"Nc1ncc(-c2cc(C3CCOc4ccccc43)cc(N3CCOCC3)n2)cn1 (stereo not drawn) [Compound 141, 5-(4-(chroman-4-yl)-6-morpholinopyridin-2-yl)pyrimidin-2-amine]"
450,–,"CC1CN(c2cc(S(=O)(=O)c3ccccc3)cc(-c3cnc(N)nc3)n2)CC(C)O1 (stereo not drawn) [Compound 150, 5-(6-(2,6-dimethylmorpholino)-4-(phenylsulfonyl)pyridin-2-yl)pyrimidin-2-amine]"
5.7,–,"Nc1ncc(-c2cc(S(=O)(=O)[C@H]3CCOC3)cc(N3CCOCC3)n2)cn1 [Compound 142a, (S)-5-(6-morpholino-4-((tetrahydrofuran-3-yl)sulfonyl)pyridin-2-yl)pyrimidin-2-amine]"
14,–,"Nc1ncc(-c2cc(C(=O)C3CCOC3)cc(N3CCOCC3)n2)cn1 (stereo not drawn) [Compound 149, (2-(2-aminopyrimidin-5-yl)-6-morpholinopyridin-4-yl)(tetrahydrofuran-3-yl)methanone]"

# Further lines, the compound ahead of its results:
SMILES,PI3Ka IC50 [nM],IC50 (read-out: PI3Ka IC50) [nM]
"CC(C)(C)C(=O)N1CC(S(=O)(=O)c2cc(-c3cnc(N)nc3)cc(N3CCOCC3)c2)C1 [Compound 86, 1-(3-((3-(2-aminopyrimidin-5-yl)-5-morpholinophenyl)sulfonyl)azetidin-1-yl)-2,2-dimethylpropan-1-one]",580,–
"Cc1cn2cc(-c3cc(N4CCOCC4)cc(S(=O)(=O)Cc4ccccc4)c3)cnc2n1 [Compound 34, 4-(3-(benzylsulfonyl)-5-(2-methylimidazo[1,2-a]pyrimidin-6-yl)phenyl)morpholine]",13000,–
"Nc1ncc(-c2cc(S(=O)(=O)C3CCOc4ccccc43)cc(N3CCOCC3)n2)cn1 (single isomer, unassigned; (-)) [(−) 143, 5-(4-(chroman-4-ylsulfonyl)-6-morpholinopyridin-2-yl)pyrimidin-2-amine]",–,1
"CC(C)N1CCC(S(=O)(=O)c2cc(-c3cnc(N)nc3)cc(N3CCOCC3)c2)CC1 [Compound 90, 5-(3-((1-isopropylpiperidin-4-yl)sulfonyl)-5-morpholinophenyl)pyrimidin-2-amine]",7220,–
"Nc1ncc(-c2cc(N3CCOCC3)cc(S(=O)(=O)C3CNC3)c2)cn1 [Compound 61, 5-(3-(azetidin-3-ylsulfonyl)-5-morpholinophenyl)pyrimidin-2-amine]",500,–
"Nc1cnc(-c2cc(N3CCOCC3)cc(S(=O)(=O)C3CCOC3)c2)cn1 (stereo not drawn) [Compound 74, 5-(3-morpholino-5-((tetrahydrofuran-3-yl)sulfonyl)phenyl)pyrazin-2-amine]",1000,–
"CNc1ncc(-c2cc(N3CCOCC3)cc(S(=O)(=O)c3ccccc3)c2)cn1 [Compound 16, N-methyl-5-(3-morpholino-5-(phenylsulfonyl)phenyl)pyrimidin-2-amine]",1500,–
"CC(C)(O)CNc1ccc(CS(=O)(=O)c2cc(-c3cnc(N)nc3)cc(N3CCOCC3)c2)cc1 [Compound 84, 1-((4-(((3-(2-aminopyrimidin-5-yl)-5-morpholinophenyl)sulfonyl)methyl)phenyl)amino)-2-methylpropan-2-ol]",600,–
"Nc1ncc(-c2cc(N3CCOCC3)cc(S(=O)(=O)CC3CCC(F)(F)CC3)c2)cn1 [Compound 64, 5-(3-(((4,4-difluorocyclohexyl)methyl)sulfonyl)-5-C21H26F2N4O3Smorpholinophenyl) pyrimidin-2-amine]",1100,–

# Reference: US11492348B2, “Tri-substituted aryl and heteroaryl derivatives as modulators of PI3-kinase and autophagy pathways” (Neuropore Therapies, Inc., priority 2018, dated 2022)
